Measurements as given in patent US8835467B2, “SIR2 regulation” (Albert Einstein College of Medicine of Yeshiva University, priority 2003, dated 2014).

Tests used:
Yeast Sir2 [1] = target: T1, Yeast Sir2 (Saccharomyces cerevisiae, UniProt P06700); assay: Sir2 catalyzed deacetylation of H4 N-terminal peptide; format: biochemical
Protocol: (§1) Measurements were performed by methods described in Sauve and Schramm (2003) with the H4N-terminal peptide (AGG(AcK)GG(AcK)GMG(AcK)VGA(AcK)RHSC) (Imai et al., 2000) as substrate.

Yeast Sir2 [2] = target: T1, Yeast Sir2; assay: Sir2 catalyzed base exchange with H4 N-terminal peptide; format: biochemical
Protocol: as §1

Yeast SIR2p [3] = target: T2, Yeast SIR2p (Saccharomyces cerevisiae, UniProt P06700); assay: SIR2 nicotinamide base-exchange assay (p53 peptide, HPLC/14C); format: biochemical; details: pH 7.6; read-out: Inhibition of exchange rate (%) yeast
T2 construct: made in house
Protocol: (§2) After 2 hours, aliquots of 10 μL removed at 0, 30, 60, 90 and 120 min. Each aliquot was combined with 50 μL 50 mM ammonium acetate pH 5.0 to quench and assayed by HPLC for deacetylation products and NAD^+. The chromatograms (260 nm) were obtained using 50 mM ammonium acetate pH 5.0 as eluant on a semi-preparative Waters C-18 column (2.0 mL/min flow rate). Peaks for ADPR and 3′-O-Acetyl-ADPR were quantified by integration. The peak for NAD^+ was collected and radiation counted.

[4] = tested on: Sir2-dependent transcriptional silencing at the rDNA locus; assay: rDNA locus URA3 silencing on FOA-containing media; format: cell-based, yeast; details: RDN1::URA3 strain; 25 mM isonicotinamide
Protocol: Ten-fold serial dilutions of yeast strains were spotted onto control (YPD) or selective media (vanLeeuwen and Gottschling, 2002). The photographs were taken after 2 to 3 days incubation. […] Isogenic strains UCC4562 (DOT1) and UCC4554 (dot1Δ) (Singer et al., 1998) are shown in each panel (top and bottom rows, respectively). […] The phenotype of strain CCFY10028 (top row) is compared to an isogenic sir2 derivative (bottom row). The sir2 deletion strain was generated by PCR-mediated gene disruption using a Nat-MX selectable marker (Tong et al., 2004).
Sir2 also localizes to the nucleolus where it functions to propagate a specialized chromatin structure on the rDNA (Rusche at al., 2003). […] Thus, isonicotinamide increases the activity of Sir2 in vivo at all three types of silent loci.

[5] = tested on: Sir2-dependent transcriptional silencing at telomeres; assay: Telomeric reporter gene silencing, serial dilution spot assay; format: cell-based, yeast
Protocol: (§3) The photographs were taken after 2 to 3 days incubation. […] Isogenic strains UCC4562 (DOT1) and UCC4554 (dot1Δ) (Singer et al., 1998) are shown in each panel (top and bottom rows, respectively). […] The phenotype of strain CCFY10028 (top row) is compared to an isogenic sir2 derivative (bottom row). The sir2 deletion strain was generated by PCR-mediated gene disruption using a Nat-MX selectable marker (Tong et al., 2004).
(§4) The deletion strains were generated by PCR-mediated gene disruption using a Nat-MX selectable marker (Tong et al., 2004). Silencing at TEL-VR::URA3 is reported by survival on FOA-containing media and at HMR::TRP1 is detected by reduced growth on media lacking tryptophan.
We examined the effect of isonicotinamide on the expression of reporter genes integrated at each of the chromosomal loci that are subject to Sir2-dependent transcriptional silencing. Silencing of a telomeric URA3 gene (TEL-VIIL-URA3) confers resistance to 5-fluoroorotic acid (5-FOA). […] In this strain, silencing is reduced by dispersion of the Sir proteins from the telomeres (van Leeuwen et al., 2002).

[6] = tested on: Sir2-dependent transcriptional silencing at the silent mating-type loci (HMR, HML); assay: Silent mating-type locus reporter silencing, spot assay; format: cell-based, yeast
Protocol: as §3, §4
The effect of isonicotinamide on Sir2 activity at the silent mating-type loci was measured in an HMR: TRP1 strain by growth on medium lacking tryptophan (FIG. 8b). Silencing of TRP1 decreases growth on Trp^− media.

Yeast SIR2p [7] = target: T2, Yeast SIR2p; assay: SIR2 deacetylation assay (p53 peptide, HPLC of ADPR and 3′-O-acetyl-ADPR); format: biochemical
Protocol: as §2
Reactions were as above but base reactions contained 5 mM of pyrazinamide, isonicotinamide, thionicotinamide, or benzamide. Reactions were carried out (2 hours for AF2 and yeast enzymes and 3 hours for mouse enzyme) at 37° C. and quenched by addition of 80 μL 50 mM ammonium acetate pH 5.0. Product formation was quantified by HPLC. […] Rates were compared with controls lacking added base.

Bacterial SIR2Af2 = target: T3, Bacterial SIR2Af2 (Archaeoglobus fulgidus, UniProt O30124); assay: as above; format: biochemical, Archeaglobus fulgidus
T3 construct: made in house
T3 sequence (O30124 1-253): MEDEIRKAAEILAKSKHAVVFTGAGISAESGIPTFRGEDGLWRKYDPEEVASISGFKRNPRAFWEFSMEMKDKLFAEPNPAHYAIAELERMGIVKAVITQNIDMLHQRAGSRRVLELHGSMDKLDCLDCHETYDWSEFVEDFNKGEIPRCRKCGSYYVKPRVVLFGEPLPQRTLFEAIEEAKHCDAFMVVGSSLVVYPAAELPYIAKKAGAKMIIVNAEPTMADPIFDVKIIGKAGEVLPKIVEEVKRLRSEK
Protocol: After 2 hours, aliquots of 10 μL removed at 0, 30, 60, 90 and 120 min. Each aliquot was combined with 50 μL 50 mM ammonium acetate pH 5.0 to quench and assayed by HPLC for deacetylation products and NAD^+. The chromatograms (260 nm) were obtained using 50 mM ammonium acetate pH 5.0 as eluant on a semi-preparative Waters C-18 column (2.0 mL/min flow rate). Peaks for ADPR and 3′-O-Acetyl-ADPR were quantified by integration. The peak for NAD^+ was collected and radiation counted. […] Plots of deacetylation rate versus nicotinamide were fit to the equations described in the text.
Reactions were as above but base reactions contained 5 mM of pyrazinamide, isonicotinamide, thionicotinamide, or benzamide. Reactions were carried out (2 hours for AF2 and yeast enzymes and 3 hours for mouse enzyme) at 37° C. and quenched by addition of 80 μL 50 mM ammonium acetate pH 5.0. Product formation was quantified by HPLC. Thionicotinamide-NAD^+ was synthesized by CD38. Rates were compared with controls lacking added base.

[8] = 125 μM [carbonyl-14C]nicotinamide, increasing isonicotinamide

T2 sequence (P06700 whole entry): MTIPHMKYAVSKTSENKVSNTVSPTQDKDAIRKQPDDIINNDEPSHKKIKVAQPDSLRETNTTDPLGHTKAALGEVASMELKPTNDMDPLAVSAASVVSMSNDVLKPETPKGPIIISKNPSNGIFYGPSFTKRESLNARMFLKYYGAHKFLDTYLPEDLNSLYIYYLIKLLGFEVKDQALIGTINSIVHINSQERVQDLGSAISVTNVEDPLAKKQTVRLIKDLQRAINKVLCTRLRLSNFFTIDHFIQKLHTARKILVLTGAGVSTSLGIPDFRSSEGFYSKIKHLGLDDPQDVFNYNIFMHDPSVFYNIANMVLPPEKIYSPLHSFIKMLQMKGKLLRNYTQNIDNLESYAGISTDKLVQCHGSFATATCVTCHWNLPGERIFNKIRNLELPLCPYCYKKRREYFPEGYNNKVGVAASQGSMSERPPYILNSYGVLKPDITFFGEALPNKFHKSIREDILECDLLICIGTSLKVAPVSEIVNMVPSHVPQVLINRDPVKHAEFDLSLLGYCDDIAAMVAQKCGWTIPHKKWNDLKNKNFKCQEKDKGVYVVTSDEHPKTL
T1 sequence (P06700 whole entry): as above

NC(=O)c1ccncc1 [Isonicotinamide]
increase of deacetylation activity (Yeast Sir2 [1]; [8]): ≤ 45% | effect on rates of deacetylation (Yeast Sir2 [1]; isonicotinamide to 100 mM, absence of nicotinamide): do not substantially affect rates of deacetylation | effect on base exchange (Yeast Sir2 [2]; [8]): Base exchange is inhibited | Ki (Yeast Sir2 [2]; read-out: Ki for isonicotinamide): 60 mM | inhibition at 42000 µM (Yeast SIR2p [3]): 40% | silencing at the rDNA locus (resistance to FOA) [4]: increases silencing at the rDNA locus | increase in colony growth on FOA-containing medium ([5]; TEL-VIIL-URA3, DOT1 strain UCC4562, 25 mM isonicotinamide): ~10 fold | enhanced silencing of telomeric reporter (growth on FOA) ([5]; TEL-VIIL-URA3, dot1Δ strain UCC4554, 25 mM isonicotinamide): > 10^3 fold | growth phenotype on FOA medium ([5]; TEL-VIIL-URA3, 25 mM isonicotinamide added to medium with 5 mM nicotinamide): intermediate growth phenotype | increase in colony growth on FOA-containing medium ([5]; TEL-VR-URA3, pnc1Δ strain, 25 mM isonicotinamide): > 10^4 fold | colony survival on non-selective medium ([5]; YPD control medium, 25 mM isonicotinamide): no effect | silencing of ADE2 integrated at TEL-VR ([5]; data not shown): increased | effect on telomeric reporter gene ([5]; npt1Δ strain, 25 mM isonicotinamide): enhances the expression of a telomeric reporter gene | Sir2 activity at HML ([6]; HML::URA3 strains UCC3515 and UCC4574, FOA-containing medium, data not shown): increased Sir2 activity at HML | growth phenotype of isogenic sir2Δ strain ([6]; HMR::TRP1, Trp− medium): Neither compound altered the growth phenotype | reduction in growth on Trp− medium ([6]; HMR::TRP1, pnc1Δ strain, 25 mM isonicotinamide): 10^3 fold | inhibition at 5000 µM (Yeast SIR2p [7]): 0% | inhibition at 42000 µM (Yeast SIR2p [7]; pH 7.6): 5% | inhibition at 5000 µM (Bacterial SIR2Af2): 4%
